For 26 compounds, EC50 results are on record in US8552022B2, “Substituted cyclopropyl compounds, compositions containing such compounds and methods of treatment” (Merck Sharp & Dohme Corp., priority 2009, dated 2013).

In the test the target is T1, GPR119 (UniProt Q8TDV5, S309L, species not given).
T1 sequence (Q8TDV5 1-335 S309L): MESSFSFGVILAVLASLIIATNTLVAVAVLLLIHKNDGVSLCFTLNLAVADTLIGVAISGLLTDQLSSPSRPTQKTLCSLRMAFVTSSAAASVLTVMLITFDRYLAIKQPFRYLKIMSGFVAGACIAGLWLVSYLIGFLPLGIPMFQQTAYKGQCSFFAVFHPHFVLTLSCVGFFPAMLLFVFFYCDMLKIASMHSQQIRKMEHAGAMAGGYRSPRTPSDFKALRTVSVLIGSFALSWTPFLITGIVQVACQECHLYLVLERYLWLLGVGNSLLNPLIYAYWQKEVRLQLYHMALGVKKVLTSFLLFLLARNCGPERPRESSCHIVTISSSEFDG
The test is described as follows: GPR119 signaling, cyclic AMP (cAMP) HTRF assay. The format is cell-based, human (S309L variant) or murine. The conditions noted are these: CHO cells with Gα15 and murine GPR119 or HEK293 Flp-In cells with human GPR119 S309L, read-out: EC50 (agonist activation of GPR119, cAMP). An excerpt: The title compound was synthesized using 2-{2-[1-(5-chloropyrimidin-2-yl)piperidin-4-yl]cyclopropyl}ethyl 4-methylbenzenesulfonate from step 1 of this example by a general procedure analogous that described in Example 59. LRMS calc: 424.9; obs: 425.01 (M+1). Measurement of GPR119Signaling Using a Cyclic AMP (cAMP) Homogenous Time Resolved Fluorescence (HTRF) Assay
Chinese hamster ovary (CHO) cell lines stably transfected with the permissive guanine nucleotide binding protein alpha 15 (Gα15) and murine GPR119 were maintained in DMEM media containing FBS, penicillin-streptomycin, puromycin, and G418 (geneticin). Alternatively, human embryonic kidney (HEK)293 Flp-In cells (Invitrogen, Carlsbad, Calif.) were stably transfected with a human SNP variant (S309L) of GPR119 and maintained in DMEM media containing FBS, penicillin-streptomycin, and hygromycin. Agonist activation of the GPR119 receptor was measured in receptor transfected cells described above, treated with compounds of this invention, using a commercial homogenous time resolved fluorescence (HTRF) kit for measurement of cAMP (CisBio, Bedford, Mass.). The assay was performed in 96-well half-volume plates (murine) or 384-well plates (human) following the manufacturers instructions. Briefly, suspended cells were incubated with a dose titration of test compound at room temperature for 60 min, lysed, and incubated with HTRF reagents for an additional 60 min. The plate was read using an Envision multilabel reader (Perkin Elmer) adjusted to read time resolved fluorescence and the cAMP concentrations were extrapolated from a cAMP calibration curve. […] The concentration of test compound required to stimulate a half-maximal response (EC50), and efficacy as compared to an internal agonist control, was determined from a sigmoidal 4-parameter curve fit of the resulting plot of normalized activity versus compound concentration.
With `CC(=O)Nc1cnc(NCC[C@@H]2C[C@@H]2C2CCN(c3ncc(Cl)cn3)CC2)c(C)c1` [Ex 33, N-{6-[(2-{(1S,2S)-2-[1-(5-chloropyrimidin-2-yl)piperidin-4-yl]cyclopropyl}ethyl)amino]-5-methylpyridin-3-yl}acetamide], the 50% effective concentration (EC50) (in general, the concentration that produces a half-maximal response) lay in the range of 10 to 50 nM.

Consider `CC(=O)Nc1ccc(NCC[C@@H]2C[C@@H]2C2CCN(c3ncc(Cl)cn3)CC2)nc1` [Ex 35, N-{6-[(2-{(1S,2S)-2-[1-(5-chloropyrimidin-2-yl)piperidin-4-yl]cyclopropyl}ethyl)amino]pyridin-3-yl}acetamide], for which the half-maximal effective concentration (EC50) lay in the range of 10 to 50 nM.

Turning to `CC(=O)Nc1ccc(NCC[C@@H]2C[C@@H]2C2CCN(c3ncc(Cl)cn3)CC2)cn1` [Ex 55, N-{5-[(2-{(1S,2S)-2-[1-(5-chloropyrimidin-2-yl)piperidin-4-yl]cyclopropyl}ethyl)amino]pyridin-2-yl}acetamide], the EC50 was below 10 nM.

For `O=C1CCCN1c1ccc(NCC[C@@H]2C[C@@H]2C2CCN(c3ncc(Cl)cn3)CC2)cn1` [Ex 20, 1-{5-[(2-{(1S,2S)-2-[1-(5-chloropyrimidin-2-yl)piperidin-4-yl]cyclopropyl}ethyl)amino]pyridin-2-yl}pyrrolidin-2-one], the concentration for a half-maximal effect (EC50) fell in the range of 10 to 50 nM.

Consider `O=C1NCc2cc(NCC[C@@H]3C[C@@H]3C3CCN(c4ncc(Cl)cn4)CC3)ccc21` [Ex 44, 5-[(2-{(1S,2S)-2-[1-(5-chloropyrimidin-2-yl)piperidin-4-yl]cyclopropyl}ethyl)amino]isoindolin-1-one], for which the 50% effective concentration (EC50) is below 10 nM.

For the compound `Clc1cnc(N2CCC([C@H]3C[C@H]3CCNc3ccc(-n4cnnn4)cn3)CC2)nc1` [Ex 24, N-(2-{(1S,2S)-2-[1-(5-chloropyrimidin-2-yl)piperidin-4-yl]cyclopropyl}ethyl)-5-(1H-tetrazol-1-yl)pyridin-2-amine], the EC50 is below 10 nM.

Consider `Clc1cnc(N2CCC([C@H]3C[C@H]3CCNc3ccc(-n4ccnn4)cc3)CC2)nc1` [Ex 21, N-(2-{(1S,2S)-2-[1-(5-chloropyrimidin-2-yl)piperidin-4-yl]cyclopropyl}ethyl)-4-(1H-1,2,3-triazol-1-yl)aniline], for which the EC50 was below 10 nM.

As to `Cn1cnnc1-c1ccc(NCC[C@@H]2C[C@@H]2C2CCN(c3ncc(Cl)cn3)CC2)cc1` [Ex 13, N-(2-{(1S,2S)-2-[1-(5-chloropyrimidin-2-yl)piperidin-4-yl]cyclopropyl}ethyl)-4-(4-methyl-4H-1,2,4-triazol-3-yl)aniline], the EC50 is 10 to 50 nM.

`Clc1cnc(N2CCC([C@H]3C[C@H]3CCNc3cnc(-n4cncn4)nc3)CC2)nc1` [Ex 16, N-(2-{(1S,2S)-2-[1-(5-chloropyrimidin-2-yl)piperidin-4-yl]cyclopropyl}ethyl)-2-(1H-1,2,4-triazol-1-yl)pyrimidin-5-amine]: the concentration for a half-maximal effect (EC50) was in the range of 10 to 50 nM.

As for `CC1(C(=O)Nc2ccc(NCC[C@@H]3C[C@@H]3C3CCN(c4ncc(Cl)cn4)CC3)nc2)CC1` [Ex 37, N-{6-[(2-{(1S,2S)-2-[1-(5-chloropyrimidin-2-yl)piperidin-4-yl]cyclopropyl}ethyl)amino]pyridin-3-yl}-1-methylcyclopropanecarboxamide], the EC50 was below 10 nM.

For `Cc1cc(NCC[C@@H]2C[C@@H]2C2CCN(c3ncc(Cl)cn3)CC2)cnc1NC(=O)C(C)(C)C` [Ex 31, N-{5-[(2-{(1S,2S)-2-[1-(5-chloropyrimidin-2-yl)piperidin-4-yl]cyclopropyl}ethyl)amino]-3-methylpyridin-2-yl}-2,2-dimethyl propanamide], the EC50 is below 10 nM.

`Clc1cnc(N2CCC([C@H]3C[C@H]3CCNc3ccc(-n4cnnn4)cc3)CC2)nc1` [Ex 10, N-(2-{(1S,2S)-2-[1-(5-chloropyrimidin-2-yl)piperidin-4-yl]cyclopropyl}ethyl)-4-(1H-tetrazol-1-yl)aniline]: the concentration for a half-maximal effect (EC50) is below 10 nM.

In the case of `Clc1cnc(N2CCC([C@H]3C[C@H]3CCNc3cnc(-n4cncn4)cn3)CC2)nc1` [Ex 23, N-(2-{(1S,2S)-2-[1-(5-chloropyrimidin-2-yl)piperidin-4-yl]cyclopropyl}ethyl)-5-(1H-1,2,4-triazol-1-yl)pyrazin-2-amine], the EC50 is below 10 nM.

Take `Cc1n[nH]c2ccc(NCC[C@@H]3C[C@@H]3C3CCN(c4ncc(Cl)cn4)CC3)cc12` [Ex 47, N-(2-{(1S,2S)-2-[1-(5-chloropyrimidin-2-yl)piperidin-4-yl]cyclopropyl}ethyl)-3-methyl-1H-indazol-5-amine]: the EC50 was below 10 nM.

Turning to `CS(=O)(=O)c1ccc(NCC[C@@H]2C[C@H]2C2CCN(c3ncc(Cl)cn3)CC2)cc1` (single isomer, unassigned) [Ex 60, trans N-(2-{2-[1-(5-chloropyrimidin-2-yl)piperidin-4-yl]cyclopropyl}ethyl)-4-(methylsulfonyl)aniline], the half-maximal effective concentration (EC50) was in the range of 50 to 200 nM.

`CN1Cc2cc(NCC[C@@H]3C[C@@H]3C3CCN(c4ncc(Cl)cn4)CC3)ccc2C1=O` [Ex 45, 5-[(2-{(1S,2S)-2-[1-(5-chloropyrimidin-2-yl)piperidin-4-yl]cyclopropyl}ethyl)amino]-2-methylisoindolin-1-one]: the EC50 fell in the range of 10 to 50 nM.

Regarding `Cc1nnnn1-c1ccc(NCC[C@@H]2C[C@@H]2C2CCN(c3ncc(Cl)cn3)CC2)cn1` [Ex 18, N-(2-{(1S,2S)-2-[1-(5-chloropyrimidin-2-yl)piperidin-4-yl]cyclopropyl}ethyl)-6-(5-methyl-1H-tetrazol-1-yl)pyridin-3-amine], the half-maximal effective concentration (EC50) is 10 to 50 nM.

For `Clc1cnc(N2CCC([C@H]3C[C@H]3CCNc3ccc4cn[nH]c4c3)CC2)nc1` [Ex 57, N-(2-{(1S,2S)-2-[1-(5-chloropyrimidin-2-yl)piperidin-4-yl]cyclopropyl}ethyl)-1H-indazol-6-amine], the concentration giving a half-maximal response (EC50) is below 10 nM.

For the compound `Cc1nc(C#N)cc(NCC[C@@H]2C[C@@H]2C2CCN(c3ncc(Cl)cn3)CC2)n1` (racemic) [Ex 4, rac-cis-6-[(2-{2-[1-(5-chloropyrimidin-2-yl)piperidin-4-yl]cyclopropyl}ethyl)amino]-2-methylpyrimidine-4-carbonitrile], the EC50 was below 10 nM.

On to `O=C(Cc1ccc(NCC[C@@H]2C[C@@H]2C2CCN(c3ncc(Cl)cn3)CC2)cc1)NC1CC1` [Ex 43, 2-{4-[(2-{(1S,2S)-2-[1-(5-chloropyrimidin-2-yl)piperidin-4-yl]cyclopropyl}ethyl)amino]phenyl}-N-cyclopropylacetamide], for which the concentration giving a half-maximal response (EC50) was 10 to 50 nM.

As to `Cc1cc(C#N)cc(NCC[C@@H]2C[C@@H]2C2CCN(c3ncc(Cl)cn3)CC2)n1` [Ex 40, 2-[(2-{(1S,2S)-2-[1-(5-chloropyrimidin-2-yl)piperidin-4-yl]cyclopropyl}ethyl)amino]-6-methylisonicotinonitrile], the EC50 fell in the range of 10 to 50 nM.

For the compound `O=C1Cc2cc(NCC[C@@H]3C[C@@H]3C3CCN(c4ncc(Cl)cn4)CC3)cc(Cl)c2N1` [Ex 54, 7-chloro-5-[(2-{(1S,2S)-2-[1-(5-chloropyrimidin-2-yl)piperidin-4-yl]cyclopropyl}ethyl)amino]-1,3-dihydro-2H-indol-2-one], the EC50 is below 10 nM.

For `Clc1cnc(N2CCC([C@H]3C[C@H]3CCNc3ccc(-n4cnnc4)cc3)CC2)nc1` [Ex 25, N-(2-{(1S,2S)-2-[1-(5-chloropyrimidin-2-yl)piperidin-4-yl]cyclopropyl}ethyl)-4-(4H-1,2,4-triazol-4-yl)aniline], the EC50 was below 10 nM.

With `Clc1cnc(N2CCC([C@H]3C[C@H]3CCNc3ccc(-n4cnnn4)nc3)CC2)nc1` [Ex 15, N-(2-{(1S,2S)-2-[1-(5-chloropyrimidin-2-yl)piperidin-4-yl]cyclopropyl}ethyl)-6-(1H-tetrazol-1-yl)pyridin-3-amine], the EC50 is below 10 nM.

For `CC(=O)Nc1cnc(NCC[C@@H]2C[C@@H]2C2CCN(c3ncc(Cl)cn3)CC2)cc1C` [Ex 34, N-{6-[(2-{(1S,2S)-2-[1-(5-chloropyrimidin-2-yl)piperidin-4-yl]cyclopropyl}ethyl)amino]-4-methylpyridin-3-yl}acetamide], the EC50 fell in the range of 10 to 50 nM.

With `Clc1cnc(N2CCC([C@H]3C[C@H]3CCNc3ccc(-n4cncn4)nc3)CC2)nc1` [Ex 14, N-(2-{(1S,2S)-2-[1-(5-chloropyrimidin-2-yl)piperidin-4-yl]cyclopropyl}ethyl)-6-(1H-1,2,4-triazol-1-yl)pyridin-3-amine], the concentration for a half-maximal effect (EC50) was below 10 nM.
